# Results: patent US20230398130A1, “METHODS AND COMPOSITIONS FOR DIFFERENTIATING STEM CELLS” (Massachusetts Institute of Technology, priority 2020, published 2023)
# Assays:
# ISC-enriched organoids [1] = test: Primary screen, 384-well 2.5-D organoid differentiation (ENR+CD, 6 days): basal lysozyme secretion (LYZ.NS); assay type: cell-based, murine; conditions: primary screen; for Dose.FC.LYZ.NS: FC vs plate median; for Z.LYZ.NS: standard z score; for SSMD.LYZ.NS: strictly standardized mean difference
# Text: (§1) High-throughput screening.
# ISC-enriched organoids [2] = test: Primary screen, 384-well 2.5-D organoid differentiation (ENR+CD, 6 days): carbachol-induced lysozyme secretion (LYZ.S); assay type: cell-based, murine; conditions: primary screen; for Dose.FC.LYZ.S: FC vs plate median; for Z.LYZ.S: standard z score; for SSMD.LYZ.S: strictly standardized mean difference
# Text: as §1
# ISC-enriched organoids [3] = test: Primary screen, 384-well 2.5-D organoid differentiation (ENR+CD, 6 days, Target Selective Inhibitor Library, vs whole-plate median): ATP (CellTiter-Glo 3D, CTG); conditions: primary screen; for Dose.FC.CTG: FC vs plate median; for Z.CTG: standard z score; for SSMD.CTG: strictly standardized mean difference
# [4] = 1st of the 4 dose lines of the treatment (dose not given)
# [5] = 2nd of the 4 dose lines of the treatment (dose not given)
# [6] = 3rd of the 4 dose lines of the treatment (dose not given)
# [7] = 4th of the 4 dose lines of the treatment (dose not given)
Structure (SMILES),SSMD.LYZ.NS (ISC-enriched organoids [1]; [4]),SSMD.LYZ.NS (ISC-enriched organoids [1]; [5]),SSMD.LYZ.NS (ISC-enriched organoids [1]; [6]),SSMD.LYZ.NS (ISC-enriched organoids [1]; [7]),Z.LYZ.S (ISC-enriched organoids [2]; [4]),Z.LYZ.S (ISC-enriched organoids [2]; [5]),Z.LYZ.S (ISC-enriched organoids [2]; [6]),Z.LYZ.S (ISC-enriched organoids [2]; [7]),SSMD.LYZ.S (ISC-enriched organoids [2]; [4]),SSMD.LYZ.S (ISC-enriched organoids [2]; [5]),SSMD.LYZ.S (ISC-enriched organoids [2]; [6]),SSMD.LYZ.S (ISC-enriched organoids [2]; [7]),Z.CTG (ISC-enriched organoids [3]; Dose 0.08 uM),Z.CTG (ISC-enriched organoids [3]; Dose 0.40 uM),Z.CTG (ISC-enriched organoids [3]; Dose 2.00 uM),Z.CTG (ISC-enriched organoids [3]; Dose 10.00 uM),SSMD.CTG (ISC-enriched organoids [3]; [4]),SSMD.CTG (ISC-enriched organoids [3]; [5]),SSMD.CTG (ISC-enriched organoids [3]; [6]),SSMD.CTG (ISC-enriched organoids [3]; [7]),also measured
O=C(Nc1cc(C(F)(F)F)cc(C(F)(F)F)c1)c1cc(Cl)ccc1O [IMD 0354],0.021,0.439,0.612,−0.729,−0.303,0.281,0.534,−0.826,−0.335,0.203,0.537,−0.736,−0.017,0.280,0.181,−1.146,−0.019,0.258,0.274,−0.748,Dose.FC.LYZ.NS (ISC-enriched organoids [1]; Dose 0.08 uM): 0.004 log 2 fold change; Z.LYZ.NS (ISC-enriched organoids [1]; Dose 0.08 uM): 0.035; Dose.FC.LYZ.NS (ISC-enriched organoids [1]; Dose 0.40 uM): 0.101 log 2 fold change; Z.LYZ.NS (ISC-enriched organoids [1]; Dose 0.40 uM): 0.880; Dose.FC.LYZ.NS (ISC-enriched organoids [1]; Dose 2.00 uM): 0.097 log 2 fold change; Z.LYZ.NS (ISC-enriched organoids [1]; Dose 2.00 uM): 0.847; Dose.FC.LYZ.NS (ISC-enriched organoids [1]; Dose 10.00 uM): −0.089 log 2 fold change; Z.LYZ.NS (ISC-enriched organoids [1]; Dose 10.00 uM): −0.777; Dose.FC.LYZ.S (ISC-enriched organoids [2]; Dose 0.08 uM): −0.047 log 2 fold change; Dose.FC.LYZ.S (ISC-enriched organoids [2]; Dose 0.40 uM): 0.043 log 2 fold change; Dose.FC.LYZ.S (ISC-enriched organoids [2]; Dose 2.00 uM): 0.083 log 2 fold change; Dose.FC.LYZ.S (ISC-enriched organoids [2]; Dose 10.00 uM): −0.128 log 2 fold change; Dose.FC.CTG (ISC-enriched organoids [3]; Dose 0.08 uM): −0.007 log 2 fold change; Dose.FC.CTG (ISC-enriched organoids [3]; Dose 0.40 uM): 0.117 log 2 fold change; Dose.FC.CTG (ISC-enriched organoids [3]; Dose 2.00 uM): 0.076 log 2 fold change; Dose.FC.CTG (ISC-enriched organoids [3]; Dose 10.00 uM): −0.480 log 2 fold change
O=C(O)CNC(=O)c1c(O)c2ccccc2n(Cc2ccccc2)c1=O [IOX2],0.296,0.182,0.408,−0.420,0.305,0.456,0.005,−0.314,0.359,0.428,0.006,−0.298,0.356,0.185,0.232,0.002,0.501,0.264,0.287,0.003,Dose.FC.LYZ.NS (ISC-enriched organoids [1]; Dose 0.08 uM): 0.029 log 2 fold change; Z.LYZ.NS (ISC-enriched organoids [1]; Dose 0.08 uM): 0.254; Dose.FC.LYZ.NS (ISC-enriched organoids [1]; Dose 0.40 uM): 0.028 log 2 fold change; Z.LYZ.NS (ISC-enriched organoids [1]; Dose 0.40 uM): 0.246; Dose.FC.LYZ.NS (ISC-enriched organoids [1]; Dose 2.00 uM): 0.043 log 2 fold change; Z.LYZ.NS (ISC-enriched organoids [1]; Dose 2.00 uM): 0.376; Dose.FC.LYZ.NS (ISC-enriched organoids [1]; Dose 10.00 uM): −0.045 log 2 fold change; Z.LYZ.NS (ISC-enriched organoids [1]; Dose 10.00 uM): −0.388; Dose.FC.LYZ.S (ISC-enriched organoids [2]; Dose 0.08 uM): 0.047 log 2 fold change; Dose.FC.LYZ.S (ISC-enriched organoids [2]; Dose 0.40 uM): 0.071 log 2 fold change; Dose.FC.LYZ.S (ISC-enriched organoids [2]; Dose 2.00 uM): 0.001 log 2 fold change; Dose.FC.LYZ.S (ISC-enriched organoids [2]; Dose 10.00 uM): −0.049 log 2 fold change; Dose.FC.CTG (ISC-enriched organoids [3]; Dose 0.08 uM): 0.149 log 2 fold change; Dose.FC.CTG (ISC-enriched organoids [3]; Dose 0.40 uM): 0.078 log 2 fold change; Dose.FC.CTG (ISC-enriched organoids [3]; Dose 2.00 uM): 0.097 log 2 fold change; Dose.FC.CTG (ISC-enriched organoids [3]; Dose 10.00 uM): 0.001 log 2 fold change
Oc1ccc2ccccc2c1SSc1c(O)ccc2ccccc12 [IPA-3],0.027,0.026,−0.008,−0.175,0.413,−0.202,0.431,−0.347,0.356,−0.184,0.324,−0.305,0.524,−0.793,−0.202,−0.128,0.818,−0.408,−0.316,−0.172,Dose.FC.LYZ.NS (ISC-enriched organoids [1]; Dose 0.08 uM): 0.004 log 2 fold change; Z.LYZ.NS (ISC-enriched organoids [1]; Dose 0.08 uM): 0.031; Dose.FC.LYZ.NS (ISC-enriched organoids [1]; Dose 0.40 uM): 0.003 log 2 fold change; Z.LYZ.NS (ISC-enriched organoids [1]; Dose 0.40 uM): 0.028; Dose.FC.LYZ.NS (ISC-enriched organoids [1]; Dose 2.00 uM): −0.001 log 2 fold change; Z.LYZ.NS (ISC-enriched organoids [1]; Dose 2.00 uM): −0.010; Dose.FC.LYZ.NS (ISC-enriched organoids [1]; Dose 10.00 uM): −0.021 log 2 fold change; Z.LYZ.NS (ISC-enriched organoids [1]; Dose 10.00 uM): −0.186; Dose.FC.LYZ.S (ISC-enriched organoids [2]; Dose 0.08 uM): 0.064 log 2 fold change; Dose.FC.LYZ.S (ISC-enriched organoids [2]; Dose 0.40 uM): −0.031 log 2 fold change; Dose.FC.LYZ.S (ISC-enriched organoids [2]; Dose 2.00 uM): 0.067 log 2 fold change; Dose.FC.LYZ.S (ISC-enriched organoids [2]; Dose 10.00 uM): −0.054 log 2 fold change; Dose.FC.CTG (ISC-enriched organoids [3]; Dose 0.08 uM): 0.219 log 2 fold change; Dose.FC.CTG (ISC-enriched organoids [3]; Dose 0.40 uM): −0.332 log 2 fold change; Dose.FC.CTG (ISC-enriched organoids [3]; Dose 2.00 uM): −0.084 log 2 fold change; Dose.FC.CTG (ISC-enriched organoids [3]; Dose 10.00 uM): −0.054 log 2 fold change
C#Cc1cccc(Nc2ncnc3cc4c(cc23)OCCOCCOCCO4)c1 [Icotinib],0.227,−0.710,−1.321,−2.654,0.609,−0.583,−1.572,−2.708,0.689,−0.544,−1.726,−1.917,−0.047,−0.146,−0.970,−2.552,−0.065,−0.162,−0.865,−3.189,–
